Measured values from ChEMBL document CHEMBL3098085, “Novel 2-chloro-4-anilino-quinazoline derivatives as EGFR and VEGFR-2 dual inhibitors” (Eur J Med Chem, 2014).

Legend:
[1] = target: Epidermal growth factor receptor (Homo sapiens, UniProt P00533); experiment: Inhibition of wild type EGFR (unknown origin) assessed as inhibition of 33[Pi] incorporation after 60 mins by scintillation counting
[2] = target: Vascular endothelial growth factor receptor 2 (Homo sapiens, UniProt P35968); experiment: Inhibition of VEGFR2 (unknown origin) assessed as inhibition of 33[Pi] incorporation after 60 mins by scintillation counting
Vascular endothelial growth factor receptor 2, sequence (P35968 whole entry): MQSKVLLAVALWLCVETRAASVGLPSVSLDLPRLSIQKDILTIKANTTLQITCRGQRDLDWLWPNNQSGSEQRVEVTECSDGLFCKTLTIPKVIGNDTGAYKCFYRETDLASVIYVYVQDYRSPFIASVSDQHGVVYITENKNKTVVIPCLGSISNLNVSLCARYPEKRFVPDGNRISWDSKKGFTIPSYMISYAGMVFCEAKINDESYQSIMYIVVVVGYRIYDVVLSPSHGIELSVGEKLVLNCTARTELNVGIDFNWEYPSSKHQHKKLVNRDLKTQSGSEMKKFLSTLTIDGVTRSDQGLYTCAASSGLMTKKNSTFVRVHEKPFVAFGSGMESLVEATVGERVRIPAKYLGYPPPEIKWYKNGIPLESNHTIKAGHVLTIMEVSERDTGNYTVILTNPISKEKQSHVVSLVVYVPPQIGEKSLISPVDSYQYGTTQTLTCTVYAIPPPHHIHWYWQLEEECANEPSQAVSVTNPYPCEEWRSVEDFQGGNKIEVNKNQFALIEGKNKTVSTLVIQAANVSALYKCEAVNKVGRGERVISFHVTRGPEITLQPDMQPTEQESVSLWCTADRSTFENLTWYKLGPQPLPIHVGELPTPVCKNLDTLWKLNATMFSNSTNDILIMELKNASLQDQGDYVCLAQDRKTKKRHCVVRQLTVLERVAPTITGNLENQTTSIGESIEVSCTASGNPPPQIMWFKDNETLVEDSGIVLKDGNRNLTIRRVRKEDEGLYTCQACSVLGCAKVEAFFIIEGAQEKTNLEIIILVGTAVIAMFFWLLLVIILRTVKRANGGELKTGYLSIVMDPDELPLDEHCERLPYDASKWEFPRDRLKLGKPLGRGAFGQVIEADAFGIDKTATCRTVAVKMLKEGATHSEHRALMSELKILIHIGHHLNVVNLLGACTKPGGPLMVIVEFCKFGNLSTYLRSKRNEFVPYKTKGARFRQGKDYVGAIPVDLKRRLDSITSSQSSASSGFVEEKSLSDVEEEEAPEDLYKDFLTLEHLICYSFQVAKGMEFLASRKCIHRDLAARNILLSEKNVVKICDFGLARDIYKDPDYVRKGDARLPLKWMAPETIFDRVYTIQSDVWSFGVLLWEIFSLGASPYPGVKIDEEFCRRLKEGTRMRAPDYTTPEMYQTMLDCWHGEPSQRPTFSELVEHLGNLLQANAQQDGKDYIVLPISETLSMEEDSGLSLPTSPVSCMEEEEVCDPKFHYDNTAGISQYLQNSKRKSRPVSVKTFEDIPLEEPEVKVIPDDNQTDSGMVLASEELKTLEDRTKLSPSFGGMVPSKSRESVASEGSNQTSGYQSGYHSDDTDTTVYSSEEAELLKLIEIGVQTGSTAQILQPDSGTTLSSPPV

Epidermal growth factor receptor, sequence (P00533 whole entry): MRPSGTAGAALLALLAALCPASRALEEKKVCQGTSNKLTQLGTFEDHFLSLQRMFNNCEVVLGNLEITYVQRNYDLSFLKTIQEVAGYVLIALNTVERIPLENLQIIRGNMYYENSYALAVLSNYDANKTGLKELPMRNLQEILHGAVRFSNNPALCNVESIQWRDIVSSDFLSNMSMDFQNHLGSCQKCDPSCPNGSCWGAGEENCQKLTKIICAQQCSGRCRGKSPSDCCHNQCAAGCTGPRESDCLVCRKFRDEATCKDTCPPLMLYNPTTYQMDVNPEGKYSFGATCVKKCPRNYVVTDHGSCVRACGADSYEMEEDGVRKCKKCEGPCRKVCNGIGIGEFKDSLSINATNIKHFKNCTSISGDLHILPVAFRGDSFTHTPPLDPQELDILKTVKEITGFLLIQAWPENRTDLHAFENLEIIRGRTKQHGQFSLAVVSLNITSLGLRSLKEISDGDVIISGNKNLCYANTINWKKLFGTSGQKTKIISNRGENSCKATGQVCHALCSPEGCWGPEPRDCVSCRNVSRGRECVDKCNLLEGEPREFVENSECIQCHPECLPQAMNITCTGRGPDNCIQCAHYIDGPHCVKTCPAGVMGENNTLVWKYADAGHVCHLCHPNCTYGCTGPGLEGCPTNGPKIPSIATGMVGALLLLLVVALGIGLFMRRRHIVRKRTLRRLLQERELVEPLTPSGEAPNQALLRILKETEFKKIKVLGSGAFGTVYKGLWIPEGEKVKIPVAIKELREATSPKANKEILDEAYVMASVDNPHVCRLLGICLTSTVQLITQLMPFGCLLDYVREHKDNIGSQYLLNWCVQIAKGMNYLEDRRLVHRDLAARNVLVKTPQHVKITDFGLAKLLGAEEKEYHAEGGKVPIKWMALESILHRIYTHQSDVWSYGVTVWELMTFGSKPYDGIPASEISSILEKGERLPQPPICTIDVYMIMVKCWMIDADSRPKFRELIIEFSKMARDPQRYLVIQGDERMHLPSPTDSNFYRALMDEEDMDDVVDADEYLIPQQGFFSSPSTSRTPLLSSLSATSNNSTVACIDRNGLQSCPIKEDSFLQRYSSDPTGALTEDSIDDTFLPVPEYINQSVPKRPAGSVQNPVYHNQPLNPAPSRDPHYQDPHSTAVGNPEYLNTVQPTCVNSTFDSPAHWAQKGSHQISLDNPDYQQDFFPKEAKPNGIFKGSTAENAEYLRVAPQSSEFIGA

IC50 [1] [µM] | IC50 [2] [µM] | SMILES
67.2 | 43.3 | COc1cc2nc(Cl)nc(Nc3ccc(S(=O)(=O)N(C)C)cc3)c2cc1OC
61.5 | > 100 | COc1cc2nc(Cl)nc(Nc3ccc(S(C)(=O)=O)cc3)c2cc1OC
2.37 | 1.02 | COc1cc2nc(Cl)nc(Nc3ccc(S(N)(=O)=O)cc3)c2cc1OC
1.63 | 0.85 | CNS(=O)(=O)c1ccc(Nc2nc(Cl)nc3cc(OC)c(OC)cc23)cc1
4.3 | 2.1 | COc1cc2nc(Cl)nc(Nc3ccc(O)cc3)c2cc1OC
> 100 | > 100 | COc1cc2nc(Cl)nc(Nc3ccc(S(=O)(=O)O)cc3)c2cc1OC

The next lines start with the molecule.

SMILES | IC50 [1] [µM] | IC50 [2] [µM]
O=S(=O)(Nc1nccs1)c1ccc(Nc2nc(Cl)nc3cc4c(cc23)OCO4)cc1 | > 100 | > 100
CN(C)S(=O)(=O)c1ccc(Nc2nc(Cl)nc3cc4c(cc23)OCO4)cc1 | 18.3 | 23.4
CN(C)S(=O)(=O)c1ccc(Nc2nc(Cl)nc3ccccc23)cc1 | > 100 | > 100
CS(=O)(=O)c1ccc(Nc2nc(Cl)nc3cc4c(cc23)OCO4)cc1 | > 100 | > 100
NS(=O)(=O)c1ccc(Nc2nc(Cl)nc3cc4c(cc23)OCO4)cc1 | 34.6 | 26.9
COc1cc2nc(Cl)nc(Nc3ccc(N(C)C)cc3)c2cc1OC | 36 | 39.3
CN(C)c1ccc(Nc2nc(Cl)nc3cc4c(cc23)OCO4)cc1 | > 100 | > 100
COc1cc2nc(Cl)nc(Nc3ccc(C(=O)O)cc3)c2cc1OC | > 100 | > 100
COc1cc2nc(Cl)nc(Nc3ccc(C(N)=O)cc3)c2cc1OC | 0.9 | 1.17
COc1cc2nc(Cl)nc(Nc3ccc(NC(C)=O)cc3)c2cc1OC | 37.6 | 1.99
COc1cc2nc(Cl)nc(Nc3ccc(S(=O)(=O)Nc4nccs4)cc3)c2cc1OC | 9.7 | 7.79
